Measured values as given in US11512079B2, “Heterocycle substituted pyridine derivative antifungal agents” (Amplyx Pharmaceuticals, Inc., priority 2017, dated 2022).
In brackets after ≈: the same amount, converted by molar mass. Values belong to the molecule of their own block, whether it stands above or below them.

Columns and labels:
C. neoformans isolates = experiment: Activity vs susceptible and FLC non-susceptible/resistant strains, broth microdilution; format: cell-based, Cryptococcus neoformans
Source text: (§1) The activity of Gwt1 inhibitors against susceptible and FLC non-susceptible/resistant strains.
(§2) Isolates tested. C. neoformans strains H99, DUMC 118.00, DUMC 158.03 and C. gattii strains R272, and RSA-MW-3515 were obtained from Duke University. C. albicans 90028, A. fumigatus MYA3626, C. neoformans 14116, C. neoformans 76484 and the pathogenic Cryptococcus reference strains panel (ATCC MP-11) were obtained from American Type Culture Collection (ATCC, Manassas, Va., USA). The MP-11 panel consists of strains representing eight molecular types and three subtypes of C. neoformans and C. gattii.
(§3) Antifungal susceptibility testing. To establish antimicrobial activity, broth microdilution susceptibility testing was performed according to Clinical and Laboratory Standards Institute (CLSI) guidelines M27-A3 for yeasts and M38-A2 for molds. Compound 2 and analogs were first diluted in DMSO to obtain intermediate dilutions. These were further diluted in microtiter plates to obtain a final concentration of 2 to 0.002 μg/mL. 1 μl of DMSO was added to “No drug” control wells. The solutions were mixed on a plate shaker for 10 mins and plates incubated at 35° C. for 40 to 48 h (C. albicans, A. fumigatus) and 72 h (C. neoformans). The minimum concentration that led to 50% reduction in fungal growth as compared to the control (with the aid of a reading mirror) was determined as the minimum inhibitory concentration (MIC) for C. albicans and C. neoformans.

[1] = tested on: strains of C. neoformans and C. gattii; experiment: Activity vs Cryptococcus, summary over the strains tested; format: cell-based, Cryptococcus neoformans and Cryptococcus gattii
Source text: as §1, §2, §3

C. gattii isolates = experiment: Activity vs susceptible and FLC non-susceptible/resistant strains, broth microdilution; format: cell-based, Cryptococcus gattii
Source text: as §1, §2, §3

C. neoformans strain H99 = experiment: Murine model of cryptococcal meningitis, dosing in the presence of the pan-CYP inhibitor ABT, CD-1 mice; format: in vivo, Cryptococcus neoformans; settings: for reduction of CFU in brain vs untreated control / reduction of CFU in lung vs untreated control: preliminary experiment, 100 mg/kg ABT PO 2 h prior to each dose, n=5
Procedure: Efficacy of exemplary compounds in a murine model of cryptococcal meningitis when dosed in the presence of the pan-CYP inhibitor ABT. […] 100 mg/kg ABT was administered orally to male CD-1 mice 2 h prior to compound administration. Mice were injected with 6.9×10^4 CFU C. neoformans strain H99 per mouse via lateral tail vein at T=0 h. Treatment with each prodrug was initiated about 1 h post-infection by IP administration and continued daily for 7 days with 100 mg/kg ABT administered orally 2 h prior to each dose of compound. The mean log10 CFU/g brain and lung counts in untreated control mice were 7.83±0.09 and 4.67±0.88, respectively (FIG. 1).
[…] A 60 mg/kg dose QD without ABT was also evaluated as a control.
Cryptococcal meningitis model. C. neoformans strain H99 was grown in YPD broth at 30° C. on a shaker (220 rpm) for 24 h, centrifuged (1980 ref) and washed twice in PBS, resuspended in PBS, and quantified by hemacytometric count. CD-1 male mice were infected with ˜5×10^4 CFU per mouse via lateral tail vein injection of 100 μL. Mice were weighed, and treatment was within 1 h after infection. Treatments were administered daily for seven days. Mice were weighed daily and observed for acute and chronic adverse symptoms. Mice were sacrificed on day 8, and brain and left lung were homogenized and cultured for quantitative determination of tissue burden (CFU per gram of tissue). Tissues were homogenized for 25 seconds in […] phosphate buffered saline using two 6.5 mm steel beads and a Mini-Beadbeater 16 (Biospec Products, Inc., Bartlesville, Okla.), and serially diluted in 10-fold steps. Aliquots ([…]) of homogenate were plated and incubated for 3 to 7 days at 37° C. Fungal burden data were log10 transformed and evaluated using Kruskal-Wallis tests with Dunn's Multiple Comparison Test for Post-hoc analysis (Prism 5; GraphPad Software, Inc., San Diego, Calif.). A P value of ≤0.05 is considered statistically significant.

[2] = tested on: Cryptococcus neoformans H99; experiment: In vitro antifungal assay (Example IX), microdilution broth, MIC; format: cell-based; settings: minimum inhibitory concentration (≥50% inhibition), 35° C., 72 h, RPMI1640
How it was run: (§4)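 CLSI broth microdilution in RPMI1640 with 2.5×10^3 cells/mL and final compound concentrations of 2-0.0019 μg/mL (1% DMSO). C. albicans 90028 plates were incubated at 35° C. for 40-48 h and C. neoformans H99 for 72 h. MIC was read as minimum inhibitory concentration, verified at 600 nm.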

Candida albicans 90028 = experiment: as above; format: cell-based; settings: minimum inhibitory concentration (≥50% inhibition), 35° C., 40-48 h, RPMI1640
How it was run: as §4

Cryptococcus gattii = experiment: as above; format: cell-based; settings: minimum inhibitory concentration (≥50% inhibition), 35° C., 72 h (Cryptococcus), RPMI1640
How it was run: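 Broth microdilution in RPMI1640 with 2.5×10^3 cells/mL inoculum; final compound concentrations were 2–0.0019 μg/mL, with 1% DMSO. Cryptococcus plates were incubated at 35 °C for 72 h, and growth was read at 600 nm to give the MIC.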

[3] = tested on: Aspergillus fumigatus MYA3626; experiment: In vitro antifungal assay (Example IX), microdilution broth, MEC; format: cell-based; settings: minimum effective concentration (shortening of hyphae), 35° C., 40-48 h, RPMI1640
How it was run: (§5)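 Spore suspensions of A. fumigatus and R. pusillus adjusted to 1-2×10^4 spores/mL in RPMI1640 and exposed to compound dilutions prepared in DMSO, by broth microdilution. MEC taken as the lowest concentration shortening hyphae versus DMSO control wells, read as for echinocandins.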

[4] = tested on: Rhizomucor pusillus 46342; experiment: as above; format: cell-based; settings: minimum effective concentration (shortening of hyphae), 35° C., 40-48 h, RPMI1640
How it was run: as §5

[5] = in the presence of ABT, 20 mg/kg Ex. 172 prodrug, 60 mg/kg Ex. 173 prodrug, 80 mg/kg Compound 1

- MIC [2]: 0.1 to 1 µg/mL (≈ 0.237 to 2.37 µM)
- MIC (Candida albicans 90028): 0.1 to 1 µg/mL (≈ 0.237 to 2.37 µM)
- MIC (Cryptococcus gattii): > 1 µg/mL
SMILES: COc1c(F)cc(F)cc1NCc1ccc(Cc2cc(-c3cccnc3N)on2)cc1 [compound 198, 3-(3-(4-(((3,5-difluoro-2-methoxyphenyl)amino)methyl)benzyl)isoxazol-5-yl)pyridin-2-amine]
- minimal effective concentration [3]: > 1 µg/mL
- minimal effective concentration [4]: 0.1 to 1 µg/mL

- MIC [2]: 0.1 to 1 µg/mL (≈ 0.302 to 3.02 µM)
- MIC (Candida albicans 90028): 0.01 to 0.1 µg/mL (≈ 0.0302 to 0.302 µM)
- MIC (Cryptococcus gattii): 0.01 to 0.1 µg/mL (≈ 0.0302 to 0.302 µM)
SMILES: Nc1ncccc1-c1cc(Cc2ccc(Cn3cccn3)cc2)no1 [compound 1, 3-(3-(4-((1H-pyrazol-1-yl)methyl)benzyl)isoxazol-5-yl)pyridin-2-amine]
- minimal effective concentration [3]: 0.1 to 1 µg/mL
- minimal effective concentration [4]: > 1 µg/mL

Second part, the molecule before the results:

SMILES: Nc1ncccc1-c1cc(Cc2ccc(OCc3ccccc3)cc2)no1 [Example 2020]
- MIC (C. neoformans isolates; C. neoformans 14116): 0.031 µg/mL (≈ 0.0867 µM)
- MIC (C. neoformans isolates; C. neoformans 76484): 0.063 µg/mL (≈ 0.176 µM)
- MIC (C. neoformans isolates; C. neoformans DUMC 118.00 (FLC-resistant)): 0.063 µg/mL (≈ 0.176 µM)
- MIC (C. neoformans isolates; C. neoformans DUMC 158.03 (FLC-resistant)): 0.25 µg/mL (≈ 0.699 µM)
- MIC (C. neoformans isolates; C. neoformans H99): 0.031 µg/mL (≈ 0.0867 µM)
- MIC (C. neoformans isolates; C. neoformans MYA-4564): 0.063 µg/mL (≈ 0.176 µM)
- MIC (C. neoformans isolates; C. neoformans MYA-4565): 0.25 µg/mL (≈ 0.699 µM)
- MIC (C. neoformans isolates; C. neoformans MYA-4566): 0.125 µg/mL (≈ 0.35 µM)
- MIC (C. neoformans isolates; C. neoformans MYA-4567): 0.063 µg/mL (≈ 0.176 µM)
- MIC GEOMEAN ([1]; geometric mean over the 18 isolates of C. neoformans and C. gattii): 0.085 µg/mL (≈ 0.238 µM)
- MIC90 ([1]; panel of 18 isolates of C. neoformans and C. gattii): 0.25 µg/mL (≈ 0.699 µM)
- MIC (C. gattii isolates; C. gattii MYA-4093): 0.125 µg/mL (≈ 0.35 µM)
- MIC (C. gattii isolates; C. gattii MYA-4094): 0.25 µg/mL (≈ 0.699 µM)
- MIC (C. gattii isolates; C. gattii MYA-4560): 0.063 µg/mL (≈ 0.176 µM)
- MIC (C. gattii isolates; C. gattii MYA-4561): 0.125 µg/mL (≈ 0.35 µM)
- MIC (C. gattii isolates; C. gattii MYA-4562): 0.125 µg/mL (≈ 0.35 µM)
- MIC (C. gattii isolates; C. gattii MYA-4563): 0.125 µg/mL (≈ 0.35 µM)
- MIC (C. gattii isolates; C. gattii MYA-4877): 0.063 µg/mL (≈ 0.176 µM)
- MIC (C. gattii isolates; C. gattii RSA-MW-3615 (FLC-resistant)): 0.031 µg/mL (≈ 0.0867 µM)

SMILES: Nc1c(-c2cc(Cc3ccc(OCc4ccccc4)cc3)no2)ccc[n+]1COP(=O)([O-])O
- log10 CFU/g brain reductions at doses of similar AUC (approximately 80 μg·h/mL) (C. neoformans strain H99; [5]): 1.45 log10 CFU/g
- log10 CFU/g lung reductions at doses of similar AUC (approximately 80 μg·h/mL) (C. neoformans strain H99; [5]): 1.55 log10 CFU/g
- reduction of CFU in brain vs untreated control (C. neoformans strain H99; 34 mg/kg QD IP 7 days): 1.66 log10 CFU/g
- reduction of CFU in lung vs untreated control (C. neoformans strain H99; 34 mg/kg QD IP 7 days): 1.07 log10 CFU/g
- reduction of CFU in brain vs untreated control (C. neoformans strain H99; 85 mg/kg QD IP 7 days): 2.72 log10 CFU/g
- reduction of CFU in lung vs untreated control (C. neoformans strain H99; 85 mg/kg QD IP 7 days): 3.28 log10 CFU/g

SMILES: Nc1ncccc1-c1cc(Cc2ccc(Oc3ccccc3F)nc2)no1 [compound 131, 3-(3-((6-(2-fluorophenoxy)pyridin-3-yl)methyl)isoxazol-5-yl)pyridin-2-amine]
- MIC [2]: 0.01 to 0.1 µg/mL (≈ 0.0276 to 0.276 µM)
- MIC (Candida albicans 90028): 0.01 to 0.1 µg/mL (≈ 0.0276 to 0.276 µM)
- MIC (Cryptococcus gattii): 0.01 to 0.1 µg/mL (≈ 0.0276 to 0.276 µM)
- minimal effective concentration [3]: 0.01 to 0.1 µg/mL
- minimal effective concentration [4]: 0.1 to 1 µg/mL
